ChEMBL document CHEMBL1149172, “BREED: Generating novel inhibitors through hybridization of known ligands. Application to CDK2, p38, and HIV protease” (J Med Chem, 2004)

Biological target: Human immunodeficiency virus type 1 protease (Human immunodeficiency virus 1, UniProt Q72874)
Experiment: Inhibitory activity against HIV-I protease was determined

Row | Compound | Ki [nM]
1 | CC(C)CN(C[C@@H](O)[C@H](Cc1ccccc1)NC(=O)O[C@H]1CCOC1)S(=O)(=O)NC(C)(C)C | 42
2 | CC(C)CN(C[C@@H](O)[C@H](Cc1ccccc1)NC(=O)[C@H](CC(N)=O)NC(=O)c1ccc2ccccc2n1)S(=O)(=O)N1ONc2ccccc21 | 0.1
